Assay results reported in US8062996B2, “Plant glutamate receptors” (priority 1995, dated 2011).

How the values were obtained:
Arabidopsis [1] = assay: Plant growth assay: root length on vertical tissue culture plates; format: in vivo
Protocol: Arabidopsis seeds were grown on MS+3% sucrose vertical tissue culture plates containing various amounts of kainate (FIG. 11A) or DNQX (FIG. 11B), with (white bars) or without (black bars) glutamate supplementation. The effects of each drug on plant growth were assayed by measuring root length after two week. The results were discussed in text.
The following assay may be utilized in order to screen drugs for their effects on plant growth mediated by the GluR. Arabidopsis seedlings expressing or overexpressing the GluR are treated with the potential agonist or antagonist. In this plant growth assay, Arabidopsis seeds are plated on tissue culture plates in MS Medium (Murashige and Skoog Salt Mixture-plant basic medium available from Gibco (BRL)). A dose-response curve is determined using various concentrations of the potential agonist or antagonist added to the medium. The plants are grown vertically in a growth chamber at 22° C. with a 16 hour light/8 hour dark cycle for two weeks. The effects of each herbicide on plant growth is assessed by measuring root length on vertical tissue culture plates.
A dose-response curve using various concentrations of KA or DNQX was performed and the effects of each drug on plant growth was determined by measuring root length on vertical tissue culture plates (see FIG. 11).

Arabidopsis [2] = assay: Germination of Arabidopsis in the dark; format: in vivo
Text: FIG. 23. Effects of kainate of germination of Arabidopsis in the dark.
Kainate inhibition of germination in the dark is reversed by glutamate. Plants germinated in the dark on “normal” MS media (MS) as a positive control. Kainate, the iGluR agonist, causes a specific inhibition of germination of plants grown in MS media containing KA. The inhibition of germination by KA is reversed by the addition of glutamate to the media (MS+KA+Glu) (FIG. 23). Germination involves a light signal. Dark-grown seedlings are sown in the light and transferred to the dark. […] High doses of KA an agonist of iGluR in animals functions as a neurotoxin.
The effects of kainate on germination of Arabidopsis in the dark was determined.

ASN1 mRNA = ASN1 mRNA levels by Northern blot (relief of sucrose repression); format: in vivo, Arabidopsis; conditions: for relief of sucrose repression of ASN1 mRNA: 3% sucrose, dark 2 d; for induction of ASN1 mRNA: average of two Northern blot experiments, densitometry
Protocol: FIG. 12A. Arabidopsis seeds were grown on plates containing MS medium plates 3% (w/v) Suc under 16-h light/8-h dark cycle for 2-3 weeks. The plants were then transferred to media described below and grown in complete darkness for 2d. All samples containing 3% sucrose except for lane 2. MS was supplemented with kainate (lane 4:0.3 mM and lane 5: 0.03 mM), 0.05% (w/v) glutamate (lanes 6 and 7), and 10 μM DNQX (lanes 7 and 8). The expression of ASN1 and a control gene were detected by northern analyses on duplicate blots (under high-stringency conditions in 50% [v/v] formamide-solution), 20 μg of total RNA was used for each lane.
FIG. 12B. Quantitation of the Northern blot results in (A) by densitometry scan.
FIG. 12C. Average folds of induction in two Northern blot experiments.
The ability of a iGluR agonist to mimic the glutamate-stimulated expression of nitrogen assimilatory genes in Arabidopsis was tested using low concentrations of agonist KA and monitoring ASN1 mRNA levels as a measure of gene induction by KA.
ASN1 mRNA accumulates to high levels specifically in dark-treated plants (FIG. 12A, lane 2), and is repressed by light (FIG. 12A, lane 1) or sucrose (FIG. 12A, lane 3). […] ASN1 mRNA levels are determined by Northern blot analysis.

[3] = test system: Arabidopsis wild-type seedlings; assay: Survival of wild-type seedlings on high-dose kainate; format: in vivo; conditions: 12 mM kainate
Protocol: FIGS. 28A and 28B. Selection of Arabidopsis mutants resistant to the iGluR agonist Kainate. […] This is not unexpected as high doses of the iGluR agonist kainate function as a neurotoxin in animals. Arabidopsis mutants with putative defects in the KA binding site of iGluR were selected for the ability to grow in the presence of 12 mM kainate. […] Note the one KA-resistant plant is enlarged in FIG. 28B.
Arabidopsis mutants resistant to the iGluR agonist Kainate were selected. […] This is not unexpected as high doses of the iGluR agonist kainate function as a neurotoxin in animals. Arabidopsis mutants with putative defects in the KA binding site of iGluR were selected by selecting for mutants able to grow in the presence of 12 mM kainate. The ems mutagenized Arabidopsis M2 seedlings were sown on 12 mM kainate. Note the one KA-resistant plant is enlarged in FIG. 28B.

Row | Structure (SMILES) | root growth (Arabidopsis [1]; high concentrations of agonist or antagonist, without glutamate) | effect of high doses on root growth with glutamate supplementation (Arabidopsis [1]; high doses plus glutamate) | effect on plant growth (root length) (Arabidopsis [1]; low concentrations, 0 to 0.3 mM KA, two weeks) | germination of dark-grown seedlings (Arabidopsis [2]; kainate 200-400 uM) | inhibition of germination with glutamate supplementation (Arabidopsis [2]; kainate plus glutamate in growth media) | relief of sucrose repression of ASN1 mRNA (ASN1 mRNA; KA 300 uM and 30 μM) | induction of ASN1 mRNA (ASN1 mRNA) | lethality to wild-type seedlings [3] | relief of sucrose repression of ASN1 mRNA (ASN1 mRNA; 0.05% (w/v) glutamate)
1 | C=C(C)[C@H]1CN[C@H](C(=O)O)[C@H]1CC(=O)O [KA, kainic acid] | reduction in root growth | at least partially reversed by glutamate supplementation | no adverse effects on plant growth | significant inhibition of germination | specifically reversed by the supplementation of glutamate | able to relieve the sucrose repression of ASN1 mRNA | roughly 2 fold | kill wild-type seedlings | –
2 | N[C@@H](CCC(=O)O)C(=O)O [glutamate] | – | – | – | – | – | – | roughly 2 fold | – | able to partially relieve this sucrose repression
